How the values were obtained:
[1] = tested on: rats; test: Acute LD50, one-time feeding study of rats over 21 days; format: in vivo, rat; conditions: for acute toxicity: rat, in vivo
Experimental: (§1) Acute LD50 measurements for a one-time feeding study of rats were determined over a 21 day period for both the α-branched perfluorocarboxylate salt, C7 F15 CF(CF3)COO^- NH4^+, and its straight chain isomer, CF3 (CF2)8 COO^- NH4^+.

[2] = as above; format: in vivo, rat; conditions: rat, in vivo, po; one-time feeding, rats, 21 day period
Experimental: as §1

[3] = tested on: rats; conditions: Goeche-Flora et al.; cited from earlier work
[4] = Thermogravimetric analysis of neat perfluorocarboxylate salts; format: physicochemical; conditions: neat salt, nitrogen, 10° C./min
Source text: Thermal degradation measurements were made on a series of neat perfluorocarboxylate salts, including several α-branched open chain structures (Examples N2-N9), a primarily linear open chain structure (Example N10-Fluorad™ FC-143 Fluorochemical Surfactant, commercially available from 3M Company, St. Paul, Minn.), and a closed chain (i.e., cyclic) structure (Example N11--made by the electrochemical fluorination of benzoic acid and hydrolysis in the presence of KOH, as described in U.S. Pat. No. 2,567,011 (Diesslin et al.)).
The perfluorocarboxylate salts were tested using a Perkin-Elmer TGA 7 thermogravimetric analysis apparatus and a salt sample size of approximately 5 mg, a heating rate of 10° C./min, and a nitrogen gas flow rate of 40-45 mL/min. Using the TGA 7 software, the following temperatures were recorded: (1) the onset temperature of decomposition, (2) the temperature at which 50% of the sample weight was lost, and (3) the temperature at which 90% of the sample weight was lost.

[5] = Surface tension and critical micelle concentration of aqueous surfactant solutions; format: physicochemical; conditions: Table 5, deionized water; for Surf. Tens.: at the CMC
Experimental: Critical Micelle Concentration (CMC): The critical micelle concentration is defined as the concentration at which further surface tension is no longer lowered with increasing levels of surfactant. To determine CMC, surface tension is measured as a function of surfactant concentration using a K-12 Processor Tensiometer in conjunction with a 665 Dosimat automatic surfactant injection device (also commercially available from Kruss GmbH). Surface tension is then plotted vs. log concentration and the data points are connected. The resulting curve has a nearly horizontal flat portion at concentrations above the CMC and has a negative steep slope at concentrations below the CMC. The CMC is defined as the lowest surfactant concentration in the horizontal flat portion of the curve.
(§2) Then the critical micelle concentration (CMC) was determined for each surfactant.
as §2

[6] = Thermal degradation in aqueous media; format: physicochemical; conditions: for volatile products formed: aqueous, approximately 80° C. for several hours, or similar way
Experimental: The thermal degradation of an aqueous α-branched perfluoroalkylcarbonyl fluoride and the characterization of the products produced from the degradation were carried out using the following procedure. […] 5.7 g of volatile degradation products were then collected by azeotropic distillation using a Dean-Stark apparatus.
The thermal degradation of C7 F15 CF(CF3)COF (from Example A4) dispersed in water was also carried out by heating the aqueous mixture for several hours at approximately 80° C.

[7] = Hydrolytic stability of esters in concentrated aqueous ammonium hydroxide; format: physicochemical; conditions: 2 days
Source text: The acrylate and methacrylate esters from Examples D1-D11 were fully recoverable with essentially no degradation after being stirred with concentrated aqueous ammonium hydroxide for a period of 2 days.

[8] = Emulsion copolymerization of hexafluoropropylene and vinylidene fluoride
Source text: The following procedure was used to evaluate C7 F15 CF(CF3)COO^- NH4^+ (from Ex. M1) as an emulsifier to copolymerize hexafluoropropylene (HFP) and vinylidene fluoride.
A 1 gallon, vertically agitated stainless steel reactor with pressure and temperature controls was evacuated and twice purged with nitrogen. Using an isolated vacuum, a solution comprised of 2 g of ammonium persulfate (initiator) and 6 g of dipotassium phosphate dissolved in 2800 g of deionized water was introduced into the reactor. The remaining vacuum on the reactor was vented with nitrogen, and the solution was degassed twice under agitation using alternate vacuum and nitrogen purges. A sufficient amount of a solution of C7 F15 CF(CF3)COO^- NH4^+ in approximately 20 g of 60-70° C. deionized water was introduced to the reactor under isolated vacuum to give a calculated final concentration of 350 ppm emulsifier in the aqueous solution. The reactor was vented with nitrogen, the solution was agitated very briefly, and the reactor was evacuated of nitrogen and isolated. Then the reactor was vented with hexafluoropropylene monomer to a pressure of approximately 10 psig (1280 torr total pressure), and the temperature of the batch was raised to 72° C. with high agitation. Maintaining the temperature at 72° C., a monomer mixture of 60% (wt) of vinylidene fluoride and 40% (wt) hexafluoropropylene was fed from a tared gas cylinder into the head space of the reactor to maintain a reactor pressure of 130 psig (7480 total pressure). After feeding in about 1 kg of monomer blend (approximately 3.75 hours duration), the introduction of monomer was ceased, the reaction was allowed to cool to room temperature, and any residual unreacted monomer was vented.
The resulting latex polymer was drained from the reactor, and percent solids of the latex was determined to be 25% by weight as measured by drying 10 g of latex in a forced air oven for 16 hours at 105° C.
The reactor body was separated from the reactor head, and a visual inspection of the reactor was made to determine the amount of coagulated polymer in the reactor (the amount should be minimal in a good polymerization reaction). A qualitative rating was assessed, ranging from "none" to "little" to "some."
The latex stability was determined by half filling a 16 oz (450 mL) jar with latex and shaking several hours in the horizontal position, quantitatively rating the latex after shaking using a 3-point scale ranging from 0=very stable to 3=unstable.
Particle size in the latex was determined using 90° scattering on a Coulter sub-micron particle size analyzer.
Degree of foaming was rated using the following qualitative scale: 0=not foamy, 1=slightly foamy, 2=moderately foamy, and 3=very foamy.
In Example P2, the same experiment was run as in Example P1, except that the concentration of C7 F15 CF(CF3)COO^- NH4^+emulsifier was raised to 3500 ppm, the reaction time decreased from 3.75 to 3.5 hours, and the reaction temperature increased from 72° C. to 78° C.
In Comparative Examples P3-P6, the same experiment was run as in Example P1, except that C8 F17 SO2 N(C2 H5)CH2 COO^- K^+ (Fluorad™ FC-128 Fluorochemical Surfactant, available from 3M Company, St. Paul, Minn.), C7 F15 COO^- H4 N^+ (Fluorad™ FC-143 Fluorochemical Surfactant), and Surflon™ S111S Fluorochemical Surfactant (believed to be nominally telomer-based n-C9 F19 COO^- H4 N^+, commercially available from Asahi Glass Corp., Japan) were substituted for C7 F15 CF(CF3)COO^- HN^+ emulsifier.

[9] = Degradation in aqueous solution at room temperature over 1 year; format: physicochemical
Experimental: The α-branched open chain ammonium salt compounds from Examples N3-N6 were dissolved in deionized water at a concentration of 5% by weight (0.5 g ammonium salt in 10 mL water) and were stored at room temperature.

[10] = tested on: rats; test: Rat desiccator jar chamber test, exhaled degradation products; format: in vivo
Experimental: Additional biological testing of C7 F15 CF(CF3)COO^- NH4^+ in rats was conducted using the following test apparatus. An uptake desiccator jar chamber was designed with top and bottom portions, the top portion equipped with an inlet port, an outlet port, oxygen monitor and pressure gage. An oxygen gas tank supplied oxygen into the inlet port, and the oxygen level in the chamber was maintained at a normal ambient level as measured by the oxygen monitor and pressure gage. The outlet port was connected in series with a carbon dioxide scrubber and particulate filter, which in turn was connected to a loop containing a stainless steel bellows pump operating at about 2 L/min. Most of the gas in the loop was recycled into the inlet port, but about 100 mL/min was directed through a secondary loop to a gas chromatograph equipped with a 0.5 mL gas sampling loop.
A rat dosed at 500 mg/kg was placed in the bottom portion of the chamber, the top portion was attached, and the assembled chamber was placed in an ice-filled pan to allow for the condensation of water. The oxygen flow was started, and the exhaust gases were monitored for the presence of CF3 CF=CF(C6 F13) and C7 F15 CFHCF3, aqueous degradation products of C7 F15 CF(CF3)COOH, using known standards of this olefin and hydride in the gas chromatograph. […] After 24 minutes, one slight chromatographic peak was noted, corresponding to the monohydride. After 92 minutes, the peak became noticeably larger and a second peak formed, corresponding to the olefin.

## O=C(O)C(F)(F)C(F)(F)C(F)(F)C(F)(F)C(F)(F)C(F)(F)C(F)(F)C(F)(F)C(F)(F)F [C9 F19 COO^- NH4^+, CF3 (CF2)8 COO^- NH4^+, reference compound]
[1]
  acute toxicity: moderately toxic
[1]; rats
  wasting syndrome: Wasting syndrome was observed
[1]; rats, LD50
  toxicity relative to the α-branched isomer: ca. 10 times
[2]
  LD50 at 504 h: 50 to 100 mg/kg
[3]
  toxicity (literature, words): moderately toxic

## O=C(O)C(F)(C(F)(F)F)C(F)(F)C(F)(F)C(F)(F)C(F)(F)C(F)(F)C(F)(F)C(F)(F)C(F)(F)C(F)(F)C(F)(F)F (centres unmarked) [Example M18, C10 F21 CF(CF3)COO^- H4 N^+]
[4]
  Temperature for: 50% loss: 181 °C
  Temperature for: 90% loss: 188 °C
  Temperature for: Onset: 164 °C
[5]
  Surf. Tens.: 14.8 dynes/cm
  CMC: 600 ppm

## O=C(F)C(F)(C(F)(F)F)C(F)(F)C(F)(F)C(F)(F)C(F)(F)C(F)(F)C(F)(F)C(F)(F)F (centres unmarked) [Example A4, C7 F15 CF(CF3)COF]
[6]
  volatile products formed: The same volatile products were formed as in Example N1
[6]; from 8 g, refluxed in deionized water 2 hours
  volatile degradation products collected: 5.7 g
[6]; in water
  monohydride in volatile degradation products: 85%
  olefin in volatile degradation products: 15%

## O=C(O)C(F)(C(F)(F)F)C(F)(F)C(F)(F)C(F)(F)C(F)(F)C(F)(F)C(F)(F)C(F)(F)F (centres unmarked) [Example M1, C7 F15 CF(CF3)COOH]
[6]
  volatile products formed: the same monohydride and olefin

## C=CC(=O)OCCOC(=O)C(F)(F)C(F)(F)C(F)(F)C(F)(F)C(F)(F)C(F)(F)C(F)(F)F [C7 F15 COOCH2 CH2 OCOCH=CH2]
[7]
  hydrolytic stability: readily hydrolyzed

## O=C(O)C(F)(F)C(F)(F)C(F)(F)C(F)(F)C(F)(F)C(F)(F)C(F)(F)F [FC-143, C7 F15 COO^- H4 N^+]
[4]
  Temperature for: 50% loss: 188 °C
  Temperature for: 90% loss: 202 °C
  Temperature for: Onset: 173 °C
[8]; emulsifier 350 ppm
  Latex Stability: 2
[5]
  Surf. Tens.: 21.5 dynes/cm
  CMC: 8000 ppm
[9]
  degradation after 1 year: no signs of degradation

## O=C(O)C(F)(C(F)(F)F)C(F)(F)C(F)(F)C(F)(F)C(F)(F)C(F)(F)C(F)(F)C(F)(F)F (centres unmarked) [Example M14, C7 F15 CF(CF3)COO^- H4 N^+]
[4]
  Temperature for: 50% loss: 163 °C
  Temperature for: 90% loss: 174 °C
  Temperature for: Onset: 151 °C
[1]; listed as C7 F15 CF(CF3)COO^- NH4
  acute toxicity: relatively low toxicity
[1]; listed as C7 F15 CF(CF3)COO^- NH4+
  acute toxicity: only slightly toxic
[1]; rats
  time of deaths from toxic doses: 2 to 3 days
  time until rats began regaining weight: 3 days
  wasting syndrome: No wasting syndrome was noted
[2]
  LD50 at 504 h: 500 to 1000 mg/kg
[8]; emulsifier 350 ppm
  Latex Stability: 2
[8]; emulsifier 3500 ppm
  Latex Stability: 0
[10]; after 217 minutes
  olefin and monohydride in exhaust gas: both peaks became significantly larger
[10]; initially
  olefin and monohydride in exhaust gas: no olefin or hydride were detected
[10]; rat
  metabolism and elimination: being metabolized by the rat to volatile metabolites which were eliminated from the rat via transpiration
[10]; rat dosed at 500 mg/kg
  post-exposure observation: no evidence of toxicity (death) or evidence of wasting syndrome
  time at which monohydride peak noted in exhaust gas: 24 min
[10]; rat dosed at 500 mg/kg, monohydride peak noticeably larger
  time at which olefin peak formed in exhaust gas: 92 min
[5]
  Surf. Tens.: 16.5 dynes/cm
  CMC: 2500 ppm

## CCN(CC(=O)O)S(=O)(=O)C(F)(F)C(F)(F)C(F)(F)C(F)(F)C(F)(F)C(F)(F)C(F)(F)C(F)(F)F [Fluorad ™ FC-128, C8 F17 SO2 N(C2 H5)CH2 COO^- K^+]
[8]; emulsifier 100 ppm
  Latex Stability: 2
[8]; emulsifier 350 ppm
  Latex Stability: 0

From patent US5998521A, “Aqueous fluoropolymer compositions and method of preparing the same” (3M Innovative Properties Company, priority 1996, dated 1999)
